Results on ten compounds are retold here after ChEMBL document CHEMBL1201862, “PubChem BioAssay data set” (2004).

SMILES strings stand for the structures.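 1) Cells in 96-well plates. 2) Compound, 48 h, 5 concentrations. 3) Linear interpolation between surrounding doses. 4) Unreached endpoint = highest concentration. Abbreviation: GI50, concentration required for 50% inhibition of growth.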 Active and inactive are the calls of the source. Cut-off read from the data, not from the text of the source: active = GI50 up to about 1.1 µM and inactive = higher. Bounds are passed on as bounds.

Some test systems named below: SK-OV-3; UACC-257; Hs-578T; TK-10; RPMI-8226; HT-29; HOP-92; SF-539; MDA-MB-231; ACHN; HOP-62; SK-MEL-5; HL-60; OVCAR-8; MOLT-4; SR; SF-268; OVCAR-3; MDA-N; MDA-MB-435.
Holding throughout (experiment): DTP human tumour cell line panel, 48 h

Turning to `CC(=O)Nc1ccc(NS(=O)(=O)c2ccc3nc(C)n(NS(=O)(=O)c4ccc(NC(C)=O)cc4)c(=O)c3c2)cc1`, the GI50 in the assay with SK-OV-3, with UACC-257, in the assay with Hs-578T, in the assay with TK-10, in the assay on RPMI-8226 and with HT-29 was > 100 µM (inactive) each time. The GI50 with HOP-92, in the assay on SF-539, in the assay with MDA-MB-231, in the assay on ACHN, with HOP-62 and in the assay with SK-MEL-5 was > 100 µM (inactive) in each case. Moreover, the GI50 in the assay on HL-60, in the assay on OVCAR-8, in the assay with MOLT-4, with SR, in the assay with SF-268 and with OVCAR-3 was > 100 µM (inactive) in each case. Further, the GI50 with MDA-N and with MDA-MB-435 was > 100 µM (inactive) throughout.

As to `CC12NC(=C(C#N)C#N)C(C#N)=C3NC(N)=C(C#N)C(=C31)Oc1ccccc12` (stereo not given), the GI50 in the assay with SK-OV-3 was 75 µM (inactive); in the assay with UACC-257, > 100 µM (inactive); in the assay on Hs-578T it was 6.46 µM (inactive); in the assay with TK-10 it was > 31 µM (inactive); in the assay on RPMI-8226, > 32.7 µM (inactive); in the assay on HT-29, 7.06 µM (inactive). Moreover, the GI50 was > 21.5 µM (inactive) in the assay on HOP-92; 4.32 µM (inactive) in the assay on SF-539; > 30.1 µM (inactive) in the assay on MDA-MB-231; > 25 µM (inactive) in the assay with ACHN; 5.04 µM (inactive) in the assay on HOP-62; 5.05 µM (inactive) in the assay on SK-MEL-5. For the same compound, the GI50 in the assay on HL-60 is 5.74 µM (inactive); in the assay on OVCAR-8 it was 10.9 µM (inactive); in the assay with MOLT-4 it was 15.2 µM (inactive); in the assay on SR, 2.59 µM (inactive); in the assay on SF-268, 10.4 µM (inactive); in the assay with OVCAR-3, 4.2 µM (inactive). The figures for the GI50 with MDA-N and with MDA-MB-435 were 14.6 µM (inactive) and > 30.1 µM (inactive), respectively.

As for `Cc1c2c(n3c(nc4ccccc43)c1C#N)SCC2`, the GI50 in the assay with SK-OV-3, with UACC-257, with Hs-578T, with TK-10, in the assay with RPMI-8226 and in the assay on HT-29 was > 10 µM (inactive) in each case. Further, the GI50 in the assay on HOP-92, with SF-539, in the assay with MDA-MB-231, in the assay on ACHN, with HOP-62 and in the assay on SK-MEL-5 was > 10 µM (inactive) throughout. For the same compound, the GI50 in the assay on HL-60, in the assay on OVCAR-8, in the assay on MOLT-4, in the assay with SR, in the assay with SF-268 and in the assay with OVCAR-3 was > 10 µM (inactive) throughout. For the same compound, the GI50 in the assay on MDA-N and in the assay with MDA-MB-435 was > 10 µM (inactive) each time.

As to `CCCCCCOc1ccc(C(=O)N(C)O)cc1`, the GI50 is 18.8 µM (inactive) in the assay with SK-OV-3; 36.6 µM (inactive) in the assay with UACC-257; 65.2 µM (inactive) in the assay on Hs-578T; 46.3 µM (inactive) in the assay with TK-10; 7.55 µM (inactive) with RPMI-8226; 10.9 µM (inactive) with HT-29. Besides, the GI50 with HOP-92 was 21.1 µM (inactive); with SF-539, 15 µM (inactive); in the assay on MDA-MB-231 it was 41.9 µM (inactive); in the assay on ACHN it was 6.01 µM (inactive); in the assay with HOP-62 it was 11 µM (inactive); with SK-MEL-5, 17.6 µM (inactive). Moreover, the GI50 in the assay on HL-60 is 4.01 µM (inactive); in the assay on OVCAR-8, 11.7 µM (inactive); with MOLT-4 it was 4.97 µM (inactive); with SR it was 6.35 µM (inactive); with SF-268, 11.5 µM (inactive); with OVCAR-3, 9.68 µM (inactive). Also, the GI50 with MDA-N is 27.6 µM (inactive); in the assay with MDA-MB-435, 23.4 µM (inactive).

As to `COc1ccc(O)c(/C=N/NC(=S)N2CCCCC2)c1`, the GI50 was 2.16 µM (inactive) with SK-OV-3; 6.04 µM (inactive) in the assay on UACC-257; 31 µM (inactive) in the assay with Hs-578T; 3.61 µM (inactive) with TK-10; 1.05 µM (active) in the assay with RPMI-8226; 8.17 µM (inactive) in the assay with HT-29. Besides, the GI50 in the assay on HOP-92 was 5.18 µM (inactive); with SF-539 it was 3.77 µM (inactive); in the assay with MDA-MB-231 it was 9.23 µM (inactive); in the assay on ACHN it was 0.906 µM (active); in the assay with HOP-62 it was 1.35 µM (inactive); with SK-MEL-5, 2.02 µM (inactive). The GI50 in the assay on HL-60 was 0.131 µM (active); in the assay with OVCAR-8 it was 1.86 µM (inactive); in the assay with MOLT-4, 1.3 µM (inactive); in the assay on SR, 0.425 µM (active); in the assay on SF-268 it was 0.948 µM (active); with OVCAR-3, 0.319 µM (active). The GI50 in the assay with MDA-N is 7.8 µM (inactive); in the assay with MDA-MB-435, 6.07 µM (inactive).

As to `CC(NC1=NCCO1)c1ccco1` (stereo not given), the GI50 in the assay on SK-OV-3 is > 100 µM (inactive); in the assay with UACC-257, > 100 µM (inactive); in the assay on Hs-578T, > 100 µM (inactive); in the assay with TK-10 it was > 100 µM (inactive); with RPMI-8226, > 100 µM (inactive); in the assay with HT-29, 93.8 µM (inactive). Besides, the GI50 with HOP-92 was > 100 µM (inactive); in the assay on SF-539, > 100 µM (inactive); in the assay with MDA-MB-231, > 100 µM (inactive); in the assay on ACHN, > 100 µM (inactive); in the assay on HOP-62, > 100 µM (inactive); with SK-MEL-5, 86.9 µM (inactive). In addition, the GI50 in the assay with HL-60 was > 100 µM (inactive); in the assay with OVCAR-8 it was > 100 µM (inactive); in the assay with MOLT-4, > 100 µM (inactive); in the assay on SR, 75.9 µM (inactive); in the assay with SF-268, > 100 µM (inactive); with OVCAR-3, > 100 µM (inactive). In addition, the GI50 is 95.9 µM (inactive) in the assay on MDA-N and > 100 µM (inactive) in the assay with MDA-MB-435.

As to `CCCCC1CCCCCCc2[nH]c(/C=C3\N=C(c4ccc[nH]4)C=C3OC)cc21` (stereo not given), the GI50 was 0.326 µM (active) with SK-OV-3; 0.13 µM (active) in the assay on UACC-257; 0.0331 µM (active) with Hs-578T; 0.338 µM (active) with TK-10; < 0.01 µM (active) in the assay on RPMI-8226; < 0.01 µM (active) in the assay on HT-29. The concentration for 50% growth inhibition (GI50) is < 0.0119 µM (active) in the assay with HOP-92; 0.0308 µM (active) with SF-539; < 0.024 µM (active) with MDA-MB-231; < 0.0111 µM (active) in the assay on ACHN; 0.0181 µM (active) in the assay with HOP-62; 0.0128 µM (active) with SK-MEL-5. For the same compound, the GI50 was < 0.01 µM (active) with HL-60; < 0.0223 µM (active) in the assay on OVCAR-8; < 0.01 µM (active) in the assay with MOLT-4; < 0.01 µM (active) in the assay on SR; 0.0676 µM (active) in the assay with SF-268; < 0.01 µM (active) with OVCAR-3. In addition, the GI50 in the assay with MDA-N is < 0.0139 µM (active); in the assay on MDA-MB-435, < 0.01 µM (active).

Regarding `COc1cccc(C2c3cc4c(cc3OC(NNC(N)=O)C2C)OCO4)c1O` (stereo not given), the GI50 with SK-OV-3 was 5.94 µM (inactive); with UACC-257, 3.42 µM (inactive); in the assay on Hs-578T, 0.741 µM (active); in the assay on TK-10 it was 9.18 µM (inactive); with RPMI-8226 it was 2.32 µM (inactive); in the assay on HT-29, 1.7 µM (inactive). In addition, the GI50 in the assay with HOP-92 is 0.269 µM (active); in the assay with SF-539 it was 0.766 µM (active); in the assay on MDA-MB-231, 3.94 µM (inactive); with ACHN, 3.47 µM (inactive); with HOP-62, 1.35 µM (inactive); in the assay with SK-MEL-5, 0.345 µM (active). For the same compound, the GI50 was 1.05 µM (active) in the assay on HL-60; 2.46 µM (inactive) in the assay with OVCAR-8; 1.42 µM (inactive) with MOLT-4; 1.64 µM (inactive) with SR; 3.37 µM (inactive) with SF-268; 0.783 µM (active) in the assay on OVCAR-3. The GI50 is 0.213 µM (active) in the assay with MDA-N and 0.216 µM (active) with MDA-MB-435.

In the case of `C=C1C(=O)OC2C1C(OC(=O)/C(C)=C/C)CC(O)(CCl)C1C(OC(C)=O)C=C(C)C21O` (stereo not given), the GI50 in the assay with SK-OV-3 is 37 µM (inactive); with UACC-257, 16.5 µM (inactive); with Hs-578T, 61.9 µM (inactive); with TK-10 it was 13.8 µM (inactive); with RPMI-8226, 7.01 µM (inactive); with HT-29, 16.3 µM (inactive). Besides, the GI50 was 13.1 µM (inactive) in the assay with HOP-92; 18.2 µM (inactive) in the assay on SF-539; 20.1 µM (inactive) in the assay with MDA-MB-231; 8.97 µM (inactive) with ACHN; 34.8 µM (inactive) in the assay on HOP-62; 14.1 µM (inactive) in the assay on SK-MEL-5. Besides, the GI50 with HL-60 is 1.89 µM (inactive); with OVCAR-8 it was 8.45 µM (inactive); with MOLT-4, 3.69 µM (inactive); with SR, 3.8 µM (inactive); in the assay with SF-268 it was 16 µM (inactive); in the assay on OVCAR-3, 8.93 µM (inactive). For the same compound, the figures for the GI50 in the assay with MDA-N and in the assay with MDA-MB-435 were 16.8 µM (inactive) and 20.3 µM (inactive), respectively.

With `CC(C)OP(=O)(OC(C)C)C(C(C)C)N(C)/C(N)=N/C#N` (stereo not given), the GI50 with SK-OV-3, in the assay with UACC-257, with Hs-578T, in the assay on TK-10, in the assay on RPMI-8226 and with HT-29 was > 100 µM (inactive) each time. The GI50 with HOP-92, with SF-539, in the assay on MDA-MB-231, in the assay with ACHN, with HOP-62 and with SK-MEL-5 was > 100 µM (inactive) in each case. Moreover, the GI50 in the assay on HL-60, in the assay with OVCAR-8, in the assay on MOLT-4, in the assay with SR, with SF-268 and in the assay on OVCAR-3 was > 100 µM (inactive) in each case. Also, the GI50 in the assay with MDA-N and in the assay with MDA-MB-435 was > 100 µM (inactive) throughout.

Usually GI50 stands for the concentration giving 50% growth inhibition.
